From ChEMBL document CHEMBL1149550, “5(Z)-benzylidene-1,2-dihydro-9-hydroxy-10-methoxy-2,2,4-trimethyl-5H-1-aza-6-oxa-chrysenes as non-steroidal glucocorticoid receptor modulators” (Bioorg Med Chem Lett, 2007)

Assays:
Glucocorticoid receptor [1] = target: T1, Glucocorticoid receptor (Homo sapiens, UniProt P04150); format: functional
T1 sequence (P04150 whole entry): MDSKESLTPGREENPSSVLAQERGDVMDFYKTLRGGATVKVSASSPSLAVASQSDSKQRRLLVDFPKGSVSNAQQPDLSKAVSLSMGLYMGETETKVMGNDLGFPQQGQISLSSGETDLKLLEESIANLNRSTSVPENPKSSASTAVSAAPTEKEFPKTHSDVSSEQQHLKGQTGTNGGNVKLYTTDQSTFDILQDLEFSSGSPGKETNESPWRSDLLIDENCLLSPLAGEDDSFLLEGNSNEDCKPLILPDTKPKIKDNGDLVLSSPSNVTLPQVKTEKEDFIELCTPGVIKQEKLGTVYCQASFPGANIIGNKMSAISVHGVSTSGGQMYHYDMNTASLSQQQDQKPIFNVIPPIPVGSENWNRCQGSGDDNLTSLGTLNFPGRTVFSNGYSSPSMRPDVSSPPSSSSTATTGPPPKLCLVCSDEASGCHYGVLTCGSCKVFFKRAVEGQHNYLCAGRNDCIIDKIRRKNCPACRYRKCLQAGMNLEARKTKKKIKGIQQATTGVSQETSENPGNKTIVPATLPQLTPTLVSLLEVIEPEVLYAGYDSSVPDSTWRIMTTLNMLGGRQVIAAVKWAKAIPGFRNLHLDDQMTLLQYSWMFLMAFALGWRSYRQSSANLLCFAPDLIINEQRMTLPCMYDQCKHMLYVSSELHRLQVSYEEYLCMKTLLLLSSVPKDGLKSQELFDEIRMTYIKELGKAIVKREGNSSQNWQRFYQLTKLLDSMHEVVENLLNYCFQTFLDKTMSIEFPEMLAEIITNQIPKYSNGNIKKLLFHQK
Description: Agonist activity at GR by GRE activation assay

Glucocorticoid receptor [2] = target: T1, Glucocorticoid receptor; format: functional; remark: listed apart in the source
Description: Antagonist activity at GR assessed as inhibition of dexamethasone-induced GRE activation

Glucocorticoid receptor [3] = target: T1, Glucocorticoid receptor; format: functional; remark: listed apart in the source
Description: Activity at GR assessed as repression of TNFalpha and IL 1-beta induced E-selectin response

Glucocorticoid receptor [4] = target: T1, Glucocorticoid receptor
Description: Displacement of radiolabeled Dexamethasone from glucocorticoid receptor

Glucocorticoid receptor [5] = target: T1, Glucocorticoid receptor; remark: listed apart in the source
Description: Agonist activity at GR by GRE activation assay relative to Dexamethasone

Progesterone receptor = target: T2, Progesterone receptor (Homo sapiens, UniProt P06401); assay: Binding affinity at PR
T2 sequence (P06401 whole entry): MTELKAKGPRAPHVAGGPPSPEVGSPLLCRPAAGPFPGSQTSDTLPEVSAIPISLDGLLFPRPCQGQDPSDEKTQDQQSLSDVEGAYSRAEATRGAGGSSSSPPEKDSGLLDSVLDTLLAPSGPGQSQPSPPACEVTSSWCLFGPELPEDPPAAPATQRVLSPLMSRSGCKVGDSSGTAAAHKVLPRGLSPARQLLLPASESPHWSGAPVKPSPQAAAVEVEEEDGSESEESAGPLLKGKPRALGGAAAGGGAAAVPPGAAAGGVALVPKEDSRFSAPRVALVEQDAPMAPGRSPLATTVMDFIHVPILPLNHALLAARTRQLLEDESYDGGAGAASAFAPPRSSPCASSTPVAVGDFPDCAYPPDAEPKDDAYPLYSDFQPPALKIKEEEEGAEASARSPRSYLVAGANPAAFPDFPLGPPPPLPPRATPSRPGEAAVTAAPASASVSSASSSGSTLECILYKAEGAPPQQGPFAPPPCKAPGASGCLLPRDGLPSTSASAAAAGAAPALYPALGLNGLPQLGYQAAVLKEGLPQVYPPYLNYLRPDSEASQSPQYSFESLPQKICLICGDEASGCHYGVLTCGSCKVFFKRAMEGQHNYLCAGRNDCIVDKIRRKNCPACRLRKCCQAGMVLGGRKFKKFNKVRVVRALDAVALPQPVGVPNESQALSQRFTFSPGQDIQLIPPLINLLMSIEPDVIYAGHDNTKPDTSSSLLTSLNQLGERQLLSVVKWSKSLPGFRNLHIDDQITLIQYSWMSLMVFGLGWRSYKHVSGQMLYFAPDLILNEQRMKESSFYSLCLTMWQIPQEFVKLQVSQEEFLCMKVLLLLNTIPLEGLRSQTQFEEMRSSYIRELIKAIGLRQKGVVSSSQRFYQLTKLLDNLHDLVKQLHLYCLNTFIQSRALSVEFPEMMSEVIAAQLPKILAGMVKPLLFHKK

Androgen receptor = target: T3, Androgen receptor (Homo sapiens, UniProt P10275); assay: Binding affinity at AR
T3 sequence (P10275 whole entry): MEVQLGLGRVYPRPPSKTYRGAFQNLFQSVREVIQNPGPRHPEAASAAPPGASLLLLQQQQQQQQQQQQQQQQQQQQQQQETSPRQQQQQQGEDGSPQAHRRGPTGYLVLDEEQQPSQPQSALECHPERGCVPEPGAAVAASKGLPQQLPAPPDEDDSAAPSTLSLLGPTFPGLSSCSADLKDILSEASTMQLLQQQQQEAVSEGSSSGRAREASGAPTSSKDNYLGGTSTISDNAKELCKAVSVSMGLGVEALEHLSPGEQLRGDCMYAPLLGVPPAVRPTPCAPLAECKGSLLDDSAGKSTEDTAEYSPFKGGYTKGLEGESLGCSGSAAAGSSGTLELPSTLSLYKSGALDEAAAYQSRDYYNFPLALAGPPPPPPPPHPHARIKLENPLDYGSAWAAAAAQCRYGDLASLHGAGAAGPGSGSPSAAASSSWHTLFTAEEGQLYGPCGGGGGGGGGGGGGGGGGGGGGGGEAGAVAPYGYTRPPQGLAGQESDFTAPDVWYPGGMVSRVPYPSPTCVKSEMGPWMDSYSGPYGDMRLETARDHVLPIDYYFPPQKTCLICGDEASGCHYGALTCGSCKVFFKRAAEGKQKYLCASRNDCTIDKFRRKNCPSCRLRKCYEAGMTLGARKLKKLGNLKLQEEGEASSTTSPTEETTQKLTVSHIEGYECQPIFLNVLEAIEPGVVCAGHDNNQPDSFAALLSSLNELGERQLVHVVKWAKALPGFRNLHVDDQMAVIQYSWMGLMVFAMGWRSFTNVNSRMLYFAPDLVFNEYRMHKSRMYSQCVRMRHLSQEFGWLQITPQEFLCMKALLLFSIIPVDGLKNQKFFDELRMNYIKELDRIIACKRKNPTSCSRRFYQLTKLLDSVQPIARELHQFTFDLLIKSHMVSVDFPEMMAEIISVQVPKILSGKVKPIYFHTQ

Row | Structure (SMILES) | EC50 (Glucocorticoid receptor [1]) | EC50 (Glucocorticoid receptor [2]) | IC50 (Glucocorticoid receptor [3]) | Ki (Glucocorticoid receptor [4]) | IC50 (Glucocorticoid receptor [2]) | EC50 (Glucocorticoid receptor [5]) | Ki (Progesterone receptor) | Ki (Androgen receptor)
1 | CCc1ccc(/C=C2\Oc3ccc(O)c(OC)c3-c3ccc4c(c32)C(C)=CC(C)(C)N4)cc1 | 207 nM | > 1000 nM |  |  |  |  |  | 
2 | COc1c(O)ccc2c1-c1ccc3c(c1/C(=C/c1ccc(-c4ccccc4)cc1)O2)C(C)=CC(C)(C)N3 | 33 nM | > 1000 nM | 77 nM | 4.4 nM |  |  |  | 
3 | COc1c(O)ccc2c1-c1ccc3c(c1/C(=C/c1ccccc1F)O2)C(C)=CC(C)(C)N3 | 0.6 nM |  | 1.4 nM | 0.8 nM | 1.3 nM |  |  | 
4 | COc1ccc(/C=C2\Oc3ccc(O)c(OC)c3-c3ccc4c(c32)C(C)=CC(C)(C)N4)cc1 | 133 nM | > 1000 nM | 10 nM | 2.7 nM |  |  |  | 
5 | COc1c(O)ccc2c1-c1ccc3c(c1/C(=C/c1ccccc1Cl)O2)C(C)=CC(C)(C)N3 | 18 nM |  | 18 nM | 15 nM | 24 nM |  |  | 
6 | COc1c(O)ccc2c1-c1ccc3c(c1/C(=C/c1cccc(Oc4ccccc4)c1)O2)C(C)=CC(C)(C)N3 | > 1000 nM |  | 74 nM | 4.6 nM | 1.9 nM | > 1000 nM |  | 
7 | COc1c(O)ccc2c1-c1ccc3c(c1/C(=C/c1ccccc1C)O2)C(C)=CC(C)(C)N3 | 3.4 nM |  | 1 nM | 1.7 nM | 0.4 nM |  |  | 
8 | COc1c(O)ccc2c1-c1ccc3c(c1/C(=C/c1ccc(C)cc1)O2)C(C)=CC(C)(C)N3 | 38 nM |  | 15 nM | 1.9 nM | 12 nM |  |  | 
9 | COc1c(O)ccc2c1-c1ccc3c(c1/C(=C/c1ccc(OC(F)(F)F)cc1)O2)C(C)=CC(C)(C)N3 | > 1000 nM | > 1000 nM | 91 nM | 4.3 nM |  |  |  | 
10 | COc1c(O)ccc2c1-c1ccc3c(c1/C(=C/c1cccc(-c4ccccc4)c1)O2)C(C)=CC(C)(C)N3 | > 1000 nM |  | 12 nM | 7.2 nM | 2.3 nM | > 1000 nM |  | 
11 | COc1c(O)ccc2c1-c1ccc3c(c1/C(=C/c1cccc(C(F)(F)F)c1)O2)C(C)=CC(C)(C)N3 | > 1000 nM |  | 4.1 nM | 2.7 nM | 2.5 nM | > 1000 nM |  | 
12 | COc1c(O)ccc2c1-c1ccc3c(c1/C(=C/c1cccc(C)n1)O2)C(C)=CC(C)(C)N3 | 0.7 nM |  | 4.9 nM | 1.6 nM | 1.1 nM |  |  | 
13 | COc1c(O)ccc2c1-c1ccc3c(c1/C(=C/c1ccc(O)cc1)O2)C(C)=CC(C)(C)N3 | 1.1 nM |  | 1 nM | 1.1 nM | 0.4 nM |  |  | 
14 | COc1c(O)ccc2c1-c1ccc3c(c1/C(=C/c1ccc(F)cc1S(=O)(=O)N1CCCCC1)O2)C(C)=CC(C)(C)N3 | 108 nM |  | 22 nM | 94 nM | 6.6 nM |  |  | 
15 | COc1c(O)ccc2c1-c1ccc3c(c1/C(=C/c1cccc(-c4ccsc4)c1)O2)C(C)=CC(C)(C)N3 | > 1000 nM |  | 1.4 nM | 3.1 nM | 0.5 nM | > 1000 nM |  | 
16 | COc1c(O)ccc2c1-c1ccc3c(c1/C(=C/c1cccc(C(F)(F)F)c1C)O2)C(C)=CC(C)(C)N3 |  |  | 15 nM | 2.6 nM | 2.6 nM |  |  | 
17 | COc1c(O)ccc2c1-c1ccc3c(c1/C(=C/c1ccc(Cl)cc1)O2)C(C)=CC(C)(C)N3 | 43 nM |  | 12 nM | 1.7 nM | > 1000 nM |  |  | 
18 | COc1c(O)ccc2c1-c1ccc3c(c1/C(=C/c1cccc(C)c1)O2)C(C)=CC(C)(C)N3 |  |  |  |  |  |  | 400 nM | 570 nM
19 | COc1c(O)ccc2c1-c1ccc3c(c1/C(=C/c1cccc(-c4cccnc4)c1)O2)C(C)=CC(C)(C)N3 | > 1000 nM |  | 3.6 nM | 1.5 nM | 0.7 nM | > 1000 nM |  | 
20 | COc1c(O)ccc2c1-c1ccc3c(c1/C(=C/c1cccc(OC(F)(F)F)c1)O2)C(C)=CC(C)(C)N3 | > 1000 nM |  | 4.7 nM | 4.1 nM | 1.9 nM | > 1000 nM |  | 
21 | COc1c(O)ccc2c1-c1ccc3c(c1/C(=C/c1ccc(C(C)C)cc1)O2)C(C)=CC(C)(C)N3 | 455 nM | > 1000 nM |  | 2.9 nM |  |  |  | 
22 | COc1c(O)ccc2c1-c1ccc3c(c1/C(=C/c1ccccc1-c1ccccc1)O2)C(C)=CC(C)(C)N3 | 4.5 nM |  | 4.4 nM | 6.7 nM | 3.6 nM |  |  | 
